Consider four compounds from US20040226502A1, “Crystal structure of 2c-methyl-d-erythritol 2,4-cyclodiphosphate synthase” (priority 2001, published 2004).

The target of assay [1] is T1, 2C-methyl-D-erythritol 2,4-cyclodiphosphate synthase (Escherichia coli, UniProt P62617).
T1 construct: His6 (from vector pQE30) (N); made in house; host or cells: E. coli XL1-Blue carrying pQEispF
The format is biochemical. The following applies: E. coli enzyme, compound as substrate. How it is done:
Assay mixtures contain 50 mM potassium phosphate, pH 7.0, 2 mM DTT, 2 mM MgCl2, 1 mM 4-diphosphocytidyl-2C-methyl-D-erythritol 2-phosphate and protein in a total volume of 100 μl. The mixtures are incubated at 37° C. for 20 min. The reactions are terminated by adding EDTA at a final concentration of 4 mM. The samples are centrifuged and the supernatant is analyzed by HPLC using a column of Multospher 120 RP 18-AQ-5 (4.6×250 mm, CS-Chromatographic Service Gmbh) that has been equilibrated and run with Gradient No. 3 at a flow rate 1 ml min^−1 (see below). The effluent is monitored photometrically (270 nm).
One unit of 2C-methyl-D-erythritol 2,4-cyclodiphosphate synthase activity is defined as the amount of protein which produced 1 μmol min^−1 of CMP.
Column: Multospher 120 RP 18-5 AQ, 250×4.6 mm, particle size 5 μm (CS: Chromatographic Service GmbH, Langerwehe, Germany)

The target of assay [2] is T1, 2C-methyl-D-erythritol 2,4-cyclodiphosphate synthase. Briefly: Crystal soaking and 3D structure determination of ligand complexes. The format is binding, E. coli. The settings on record: for affinity for the protein (in words): from crystals/structures subs, sub2 and cyt. How it is done: The following substrate, substrate analoge and product complexes were determined in order to determine binding of these molecules to the synthase:
subop: a crystal soaked with 10 mM 4-diphosphocytidyl-2C-methyl-D-erythritol. The zinc atom the water or hydroxyl-group at the zinc is replaced by an oxygen of the beta-phosphate of the diphosphocytidyl-moiety.
subs: a crystal soaked with 10 mM 4-diphosphocytidyl-2C-methyl-D-erythritol 2-phosphate and 10 mM EDTA, that contains no zinc.
sub2: a crystal soaked with 10 mM 4-diphosphocytidyl-2C-methyl-D-erythritol 2-phosphate, that containes zinc and the products CMP and 2C-methyl-D-erythritol 2,4-cyclodiphosphate.
mgcdp2: a crystal soaked with 2 mM CDP and 5 mM MgCl2
cyt: a crystal soaked with 10 mM cytidine
These structures were determined using the nat2 structure as starting model. Initially a rigid body refinement was carried out followed by positional refinement. Then the substrate, substrate analoge or product molecules were build into the electron density of difference electron density maps, again followed by refinement of atom positions and B-factors.
Crystals containing the synthase and zinc were incubated for one hour with about 5 mM of a ligand in mother liquor containing 2M ammonium formate, 0.1M HEPES/NaOH at pH 7.0 and 20% D-(−)-2,3-butanediole (purchased from FLUKA) as a cryo-protectant. Crystals were mounted in a nylon-loop and flash frozen in a stream of nitrogen at 100Kelvin with an Oxford cryo stream. […] Diffraction data were measured at that temperature without any indication of radiation damage.
In order to obtain a crystal structure of 2C-methyl-D-erythritol 2,4-cyclodiphosphate synthase in complex with CDP, the synthase was crystallized according to example 8. A crystal of suitable size was then soaked in crystallization buffer (see example 8) further containing 5 mM CDP and 5 mM MgCl2.
The starting model for the determination of the structure of the complex was the structure of the synthase without a substrate analoge. […]

T1 sequence (P62617 whole entry): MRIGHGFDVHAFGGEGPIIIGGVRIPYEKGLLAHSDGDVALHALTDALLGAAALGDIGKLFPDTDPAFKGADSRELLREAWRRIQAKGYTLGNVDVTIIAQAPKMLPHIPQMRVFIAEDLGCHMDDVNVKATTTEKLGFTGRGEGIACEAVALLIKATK

What is called Km is the substrate concentration at which the rate is half of its maximum. `C[C@@](CO)(OP(=O)(O)O)[C@H](O)COP(=O)(O)OP(=O)(O)OC[C@H]1O[C@@H](n2ccc(N)nc2=O)[C@H](O)[C@@H]1O` [4-diphosphocytidyl-2C-methyl-D-erythritol 2-phosphate]: in assay [1], the Km turned out to be 37 µM and the vmax came out at 76 µmol/mg/min. With `Nc1ccn([C@@H]2O[C@H](COP(=O)(O)OP(=O)(O)O)[C@@H](O)[C@H]2O)c(=O)n1` [CDP, cytidine diphosphate], in assay [2] (inferred from binding to a portion of the active site in the synthase-CDP complex), the “type of inhibition of the synthase (in words)” value is “competitive inhibitor”. For `Nc1ccn([C@@H]2O[C@H](COP(=O)(O)O)[C@@H](O)[C@H]2O)c(=O)n1` [CMP, cytidine monophosphate], in assay [2], the “affinity for the protein (in words)” value is “considerable affinity”. For `Nc1ccn([C@@H]2O[C@H](CO)[C@@H](O)[C@H]2O)c(=O)n1` [cytidine], the “affinity for the protein (in words)” value in assay [2] is reported as “considerable affinity”.
